Reference: patent US20110166121A1 (LG LIFE SCIENCES LTD., priority 2008, published 2011)

Tests used:
[1] = system: Human platelet aggregation caused by ADP; experiment: Inhibition of ADP-induced platelet aggregation (Mimic-human PRP); assay type: cell-based; conditions: 20 μM ADP, human platelet concentrate diluted with PPP, absorption at 595 nm
Summary of the method: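 Human PRP diluted with PPP to 3–4×10^8 platelets/mL was preincubated 20 min at room temperature with compound (0.01–30 μM, DMSO), then stimulated with 20 μM ADP. Aggregation read as A595 increase at 3 min versus 0 and 20 μM ADP controls; Ki from sigmoidal non-linear regression.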

Human P2Y12 receptor = target: T1, Human P2Y12 receptor (Homo sapiens, UniProt Q9H244); experiment: Human P2Y12 receptor cell membrane binding assay with [3H] 2-Mes-ADP; conditions: 1 nM [3H] 2-Mes-ADP, membranes of HEK cells expressing P2Y12 receptor; read-out: Binding activity (IC50)
T1 construct: expressed in transfected cells; host or cells: HEK cells
Summary of the method: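 Membranes from HEK cells expressing human P2Y12 were incubated with compound and 1 nM [3H]2-MeS-ADP for 1 h at room temperature. Bound radioactivity was collected by GF/B filtration.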

T1 sequence (Q9H244 whole entry): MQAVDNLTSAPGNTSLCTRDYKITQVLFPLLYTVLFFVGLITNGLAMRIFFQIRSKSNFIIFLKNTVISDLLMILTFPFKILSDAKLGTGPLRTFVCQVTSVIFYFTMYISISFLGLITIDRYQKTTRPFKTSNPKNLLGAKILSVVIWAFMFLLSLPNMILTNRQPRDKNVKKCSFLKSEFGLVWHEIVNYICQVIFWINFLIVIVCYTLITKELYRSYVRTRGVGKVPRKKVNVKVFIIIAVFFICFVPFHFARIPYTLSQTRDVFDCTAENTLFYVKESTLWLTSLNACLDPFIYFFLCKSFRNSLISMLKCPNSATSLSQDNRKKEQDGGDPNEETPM

Compound	Ki [1]	IC50 (Human P2Y12 receptor)
CCCc1cc2c(N3CCn4c(nnc4C(F)(F)F)C3)nc(N3CC[C@H](NC(=O)CC#N)C3)nc2s1 [Example 1-103, 2-Cyano-N-{(S)-1-[6-propyl-4-(3-trifluoromethyl-5,6-dihydro-8H-[1,2,4]triazolo[4,3-a]pyrazin-7-yl)-thieno[2,3-d]pyrimidin-2-yl]-pyrrolidin-3-yl}-acetamide]	6.6 nM	50 nM
CCCc1cc2c(N3CCn4c(nnc4C(F)(F)F)C3)nc(OCc3cocn3)nc2s1 [Example 3-20, 7-[2-(Oxazol-4-ylmethoxy)-6-propyl-thieno[2,3-d]pyrimidin-4-yl]-3-trifluoromethyl-5,6,7,8-tetrahydro-[1,2,4]triazolo[4,3-a]pyrazine]	840 nM	84 nM
CCCc1cc2c(N3CCn4c(nnc4C(F)(F)F)C3)nc(NC(Cc3ccc(O)cc3)C(=O)O)nc2s1 (stereo not shown) [Example 1-81, 3-(4-Hydroxy-phenyl)-2-[6-propyl-4-(3-trifluoromethyl-5,6-dihydro-8H-[1,2,4]triazolo[4,3-a]pyrazin-7-yl)-thieno[2,3-d]pyrimidin-2-ylamino]-propionic acid]	2300 nM	320 nM
CCCc1cc2c(N3CCn4c(nnc4C(F)(F)F)C3)nc(Nc3ncccn3)nc2s1 [Example 1-37, [6-Propyl-4-(3-trifluoromethyl-5,6-dihydro-8H-[1,2,4]triazolo[4,3-a]pyrazin-7-yl)-thieno[2,3-d]pyrimidin-2-yl]-pyrimidin-2-yl-amine]	850 nM	550 nM
CCCc1cc2c(N3CCn4c(nnc4C(F)(F)F)C3)nc(N3CCc4ccccc43)nc2s1 [Example 1-71, 7-[2-(2,3-Dihydro-indol-1-yl)-6-propyl-thieno[2,3-d]pyrimidin-4-yl]-3-trifluoromethyl-5,6,7,8-tetrahydro-[1,2,4]triazolo[4,3-a]pyrazine]	> 4000 nM	526 nM
CCCc1cc2c(N3CCn4c(nnc4C(F)(F)F)C3)nc(Oc3ccc(CCC(=O)OC)cc3)nc2s1 [Example 3-41, 3-{4-[6-Propyl-4-(3-trifluoromethyl-5,6-dihydro-8H-[1,2,4]triazolo[4,3-a]pyrazin-7-yl)-thieno[2,3-d]pyrimidin-2-yloxy]-phenyl}-propionic acid methyl ester]	1500 nM	390 nM
CCCc1cc2c(N3CCn4c(nnc4C(F)(F)F)C3)nc(Nc3ccccc3)nc2s1 [Example 1-36, Phenyl-[6-propyl-4-(3-trifluoromethyl-5,6-dihydro-8H-[1,2,4]triazolo[4,3-a]pyrazin-7-yl)-thieno[2,3-d]pyrimidin-2-yl]-amine]	1200 nM	170 nM
CCCc1cc2c(N3CCn4c(nnc4C(F)(F)F)C3)nc(N3CCOC(=O)C3)nc2s1 [Example 1-35, 4-[6-Propyl-4-(3-trifluoromethyl-5,6-dihydro-8H-[1,2,4]triazolo[4,3-a]pyrazin-7-yl)-thieno[2,3-d]pyrimidin-2-yl]-morpholin-2-one]	54 nM	135 nM
CCCc1cc2c(N3CCn4c(nnc4C(F)(F)F)C3)nc(N3CCC(=NO)C3)nc2s1 [Example 1-19, 1-[6-Propyl-4-(3-trifluoromethyl-5,6-dihydro-8H-[1,2,4]triazolo[4,3-a]pyrazin-7-yl)-thieno[2,3-d]pyrimidin-2-yl]-pyrrolidin-3-one oxime]	56 nM	55 nM
CCCc1cc2c(N3CCn4c(nnc4C(F)(F)F)C3)nc(COc3ccccc3)nc2s1 [Example 4-23, 7-(2-Phenoxymethyl-6-propyl-thieno[2,3-d]pyrimidin-4-yl)-3-trifluoromethyl-5,6,7,8-tetrahydro-[1,2,4]triazolo[4,3-a]pyrazine]	6850 nM	420 nM
CCCc1cc2c(N3CCn4c(nnc4C(F)(F)F)C3)nc(N3CCc4ccccc4C3)nc2s1 [Example 1-65, 2-[6-Propyl-4-(3-trifluoromethyl-5,6-dihydro-8H-[1,2,4]triazolo[4,3-a]pyrazin-7-yl)-thieno[2,3-d]pyrimidin-2-yl]-1,2,3,4-tetrahydro-isoquinoline]	260 nM	257 nM
CCCc1cc2c(N3CCn4c(nnc4C(F)(F)F)C3)nc(-c3nnc(CC(=O)OCC)o3)nc2s1 [Example 4-40, {5-[6-Propyl-4-(3-trifluoromethyl-5,6-dihydro-8H-[1,2,4]triazolo[4,3-a]pyrazin-7-yl)thieno[2,3-d]pyrimidin-2-yl]-[1,3,4]oxadiazol-2-yl}acetic acid ethyl ester]	270 nM	230 nM
CCCc1cc2c(N3CCn4c(nnc4C(F)(F)F)C3)nc(N3CCN(C)C(=O)C3)nc2s1 [Example 1-25, 1-Methyl-4-[6-propyl-4-(3-trifluoromethyl-5,6-dihydro-8H-[1,2,4]triazolo[4,3-a]pyrazin-7-yl)-thieno[2,3-d]pyrimidin-2-yl]-piperazin-2-one]	100 nM	32 nM
CCc1cc2c(N3CCn4c(nnc4C(F)(F)F)C3)nc(N3CCNC(=O)C3)nc2s1 [Example 2-2, 4-[6-Ethyl-4-(3-trifluoromethyl-5,6-dihydro-8H-[1,2,4]triazolo[4,3-a]pyrazin-7-yl)-thieno[2,3-d]pyrimidin-2-yl]-piperazin-2-one]	832 nM	97 nM
CCCc1cc2c(N3CCn4c(nnc4C(F)(F)F)C3)nc(N3CCc4cc(OC)c(OC)cc4C3CC)nc2s1 (stereo not shown) [Example 1-67, 1-Ethyl-6,7-dimethoxy-2-[6-propyl-4-(3-trifluoromethyl-5,6-dihydro-8H-[1,2,4]triazolo[4,3-a]pyrazin-7-yl)-thieno[2,3-d]pyrimidin-2-yl]-1,2,3,4-tetrahydro-isoquinoline]	> 4000 nM	643 nM
CCCc1cc2c(N3CCn4c(nnc4C(F)(F)F)C3)nc(N3CC[C@H](OC(C)=O)C3)nc2s1 [Example 1-22, Acetic Acid (S)-1-[6-propyl-4-(3-trifluoromethyl-5,6-dihydro-8H-[1,2,4]triazolo[4,3-a]pyrazin-7-yl)-thieno[2,3-d]pyrimidin-2-yl]-pyrrolidin-3-yl ester]	130 nM	65 nM
CCCc1cc2c(N3CCn4c(nnc4C(F)(F)F)C3)nc(C(=O)NCC(=O)OCC)nc2s1 [Example 4-8, {[6-Propyl-4-(3-trifluoromethyl-5,6-dihydro-8H-[1,2,4]triazolo[4,3-a]pyrazin-7-yl)thieno[2,3-d]pyrimidine-2-carbonyl]amino}acetic acid ethyl ester]	550 nM	470 nM
CCCc1cc2c(N3CCn4c(nnc4C(F)(F)F)C3)nc(N3CCC(O)CC3)nc2s1 [Example 1-26, 1-[6-Propyl-4-(3-trifluoromethyl-5,6-dihydro-8H-[1,2,4]triazolo[4,3-a]pyrazin-7-yl)-thieno[2,3-d]pyrimidin-2-yl]-piperidin-4-ol]	1200 nM	60 nM
CCCc1cc2c(N3CCn4c(nnc4C(F)(F)F)C3)nc(N3CCC(N(C)C)C3)nc2s1 (stereo not shown) [Example 1-97, Dimethyl-{1-[6-propyl-4-(3-trifluoromethyl-5,6-dihydro-8H-[1,2,4]triazolo[4,3-a]pyrazin-7-yl)-thieno[2,3-d]pyrimidin-2-yl]-pyrrolidin-3-yl}-amine]	13 nM	140 nM
CCCc1cc2c(N3CCn4c(nnc4C(F)(F)C(F)(F)F)C3)nc(NCCO)nc2s1 [Example 6-7, 2-[4-(3-Pentafluoroethyl-5,6-dihydro-8H-[1,2,4]triazolo[4,3-a]pyrazin-7-yl)-6-propyl-thieno[2,3-d]pyrimidin-2-ylamino]-ethanol]	407 nM	490 nM
CCCc1cc2c(N3CCn4c(nnc4C(F)(F)F)C3)nc(Oc3ccc(C(=O)OC)cc3)nc2s1 [Example 3-34, 4-[6-Propyl-4-(3-trifluoromethyl-5,6-dihydro-8H-[1,2,4]triazolo[4,3-a]pyrazin-7-yl)-thieno[2,3-d]pyrimidin-2-yloxy]-benzoic acid methyl ester]	> 4000 nM	473 nM
CCCc1cc2c(N3CCn4c(nnc4C(F)(F)F)C3)nc(Oc3cccc(C#N)c3)nc2s1 [Example 3-37, 3-[6-Propyl-4-(3-trifluoromethyl-5,6-dihydro-8H-[1,2,4]triazolo[4,3-a]pyrazin-7-yl)-thieno[2,3-d]pyrimidin-2-yloxy]-benzonitrile]	1300 nM	198 nM
CCCc1cc2c(N3CCn4c(nnc4C(F)(F)F)C3)nc(-c3nc(CCO)cs3)nc2s1 [Example 4-59, 2-{2-[6-Propyl-4-(3-trifluoromethyl-5,6-dihydro-8H-[1,2,4]triazolo[4,3-a]pyrazin-7-yl)-thieno[2,3-d]pyrimidin-2-yl]-thiazol-4-yl}-ethanol]	8.4 nM	40 nM
CCCc1cc2c(N3CCn4c(nnc4C(F)(F)F)C3)nc(N3CC[C@@H](N)C3)nc2s1 [Example 1-13, (R)-1-[6-Propyl-4-(3-trifluoromethyl-5,6-dihydro-8H-[1,2,4]triazolo[4,3-a]pyrazin-7-yl)-thieno[2,3-d]pyrimidin-2-yl]-pyrrolidin-3-ylamine]	90 nM	83 nM
CCCc1cc2c(N3CCn4c(nnc4C(F)(F)F)C3)nc(N3CC[C@@H](OC(C)=O)C3)nc2s1 [Example 1-23, Acetic Acid (R)-1-[6-propyl-4-(3-trifluoromethyl-5,6-dihydro-8H-[1,2,4]triazolo[4,3-a]pyrazin-7-yl)-thieno[2,3-d]pyrimidin-2-yl]-pyrrolidin-3-yl ester]	94 nM	90 nM
CCCc1cc2c(N3CCn4c(nnc4C(F)(F)F)C3)nc(Oc3ccc(OCC(=O)OC)cc3)nc2s1 [Example 3-43, {4-[6-Propyl-4-(3-trifluoromethyl-5,6-dihydro-8H-[1,2,4]triazolo[4,3-a]pyrazin-7-yl)-thieno[2,3-d]pyrimidin-2-yloxy]-phenoxy}-acetic acid methyl ester]	> 4000 nM	650 nM
